Laboratory results as given in patent publication US4489091A, “Antilipemic and anti-inflammatory compositions containing sulfonate derivatives” (Taiho Pharmaceutical Company Limited, priority 1980, dated 1984).
pIC50: −log10 of the molar value. Read-outs that look alike come from different tables or passages of the source.

Columns and labels:
triglycerides = assay: Antilipemic effect: percent triglycerides inhibition in plasma of rats given an olive oil-cholesterol mixture; assay type: in vivo, male Wistar rats; conditions: for inhibition in vivo at 100 mg/kg: read-out: Anti-lipemic effect, TG (percent triglycerides inhibition); for inhibition in vivo at 200 mg/kg: oral 200 mg/kg (asterisked values), read-out: Anti-lipemic effect, TG (percent triglycerides inhibition), asterisked
Method in brief: (§1)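 Male Wistar rats, seven weeks old, 200 to 220 g, 5 per group, dosed orally at 100 or 200 mg/kg in olive oil-cholesterol mixture (15% cholesterol) at 10 ml/kg. Plasma triglycerides measured at 2 hours, total cholesterol at 8 hours, by enzymatic kits; percent inhibition calculated relative to vehicle control and untreated normal groups.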

cholesterol = assay: Antilipemic effect: percent total cholesterol inhibition in plasma of rats given an olive oil-cholesterol mixture; assay type: in vivo, male Wistar rats; conditions: for inhibition in vivo at 100 mg/kg: read-out: Anti-lipemic effect, CS (percent cholesterol inhibition); for Anti-lipemic effect, CS (percent cholesterol inhibition), asterisked: oral 200 mg/kg (asterisked values)
Method in brief: as §1

Acute toxicity = conditions: rat, in vivo
Excerpt: Six-week-old male Wistar rats weighing 180 to 200 g are used, 5 rats in each group. Each compound of the invention is suspended in a 30% aqueous solution of polyethylene glycol 6000 and orally given to the rat at the dosage shown in Table 2. The animals are checked for poisoning, body weight and survival to determine the LD50 value.

esterase = assay: Esterase inhibiting activity; assay type: biochemical; conditions: rat liver microsome esterase, methyl butyrate substrate, pH 8.0, 37° C., 60 minutes; read-out: IC50 for esterases
Protocol: A 10 micromole quantity of methyl butyrate in a 50% ethanol solution is added as a substrate to a specified amount of buffer solution containing 0.1 mole of trishydrochloric acid (pH 8.0). To the mixture is further added a 50% ethanol solution of the compound of the invention, immediately followed by addition of an esterase solution prepared from a purified microsome fraction of the liver of a rat (adjusted to hydrolyze 9 micromoles of methyl butyrate at 37° C. in one hour) as an enzyme solution. The mixture is reacted at 37° C. for 60 minutes.
After the reaction, alkaline hydroxylamine is added to the mixture to form a hydroxamic acid derivative of methyl butyrate, and a ferric salt is added to the derivative. The resulting red color is colorimetrically determined (at a wavelength of 540 nm) to determine the amount of remaining methyl butyrate. The esterase inhibiting ratios of the present compound at least at three concentrations are plotted as ordinate, and the logarithms of the concentrations as abscissa to obtain a line, which gives the 50% inhibition concentration (IC50).

chymotripsin = chymotripsin (Bos taurus, UniProt P00766); assay: Chymotripsin inhibiting activity; assay type: biochemical; conditions: 0.5 h; compound 1×10^-4 mole, ATEE substrate, pH 8.0, 37° C.; read-out: Percent chymotripsin inhibition
Protocol: Chymotripsin (0.1 unit) serving as an enzyme solution is added to a specified quantity of buffer solution containing 0.1 mole of trishydrochloric acid (pH 8.0). To the mixture is further added a 50% ethanol solution of the compound of the invention so that the resulting mixture contains the compound in a concentration of 1×10^-4 mole. The mixture is reacted at 37° C. for 20 minutes.
On completion of the reaction, 10 micromoles of N-acetyl-L-thyrosine ethyl ester (ATEE) serving as a substrate is added to the mixture, and the resulting mixture is reacted at 37° C. for 30 minutes.
After the completion of the reaction, the amount of remaining ATEE is determined by the same hydroxamic acid method as above. The percent chymotripsin inhibition is given by [formula] wherein A is the amount of hydrolyzed esters in the reaction system not containing the compound of the invention, and B is the amount of hydrolyzed esters in the reaction system containing the present compound.

[1] = oral 100 mg/kg, plasma 2 hours after dosing, Wistar rat
[2] = oral 100 mg/kg, plasma 8 hours after dosing, Wistar rat
[3] = oral, six-week-old male Wistar rats, suspended in 30% aqueous polyethylene glycol 6000, read-out: LD50
[4] = plasma 2 hours after dosing, Wistar rat
[5] = plasma 8 hours after dosing, Wistar rat

Row | Structure (SMILES) | inhibition in vivo at 100 mg/kg (triglycerides; [1]) | inhibition in vivo at 100 mg/kg (cholesterol; [2]) | LD50 (Acute toxicity; po) | pIC50 (esterase) | inhibition at 100 µM (chymotripsin) | inhibition in vivo at 100 mg/kg (triglycerides; Rattus norvegicus, po, 2 h) | inhibition in vivo at 100 mg/kg (cholesterol; Rattus norvegicus, po, 8 h) | LD50 (Acute toxicity; [3]) | inhibition in vivo at 200 mg/kg (triglycerides; [4]) | Anti-lipemic effect, CS (percent cholesterol inhibition), asterisked (cholesterol; [5])
1 | CCCC(=O)COS(=O)(=O)c1ccc2ccccc2c1 [Compound 5] | 86% | 73% | > 2500 mg/kg | 5.44 | 17% |  |  |  |  | 
2 | CCCCCC(=O)COS(=O)(=O)c1ccccc1 [Compound 8] | 87% | 60% | > 2000 mg/kg | 7.14 | 100% |  |  |  |  | 
3 | CCCCCCC(=O)COS(=O)(=O)c1ccccc1 [Compound 9] | 88% | 62% | > 3000 mg/kg | 7.17 | 96% |  |  |  |  | 
4 | CCCCCCCCCC(=O)COS(=O)(=O)c1ccccc1 [Compound 10] |  |  |  | 8.12 | 14% | 80% | 61% | > 3000 mg/kg |  | 
5 | C=CCCC(=O)COS(=O)(=O)c1ccccc1 [Compound 14] | 92% | 62% | > 2000 mg/kg | 6.28 | 25% |  |  |  |  | 
6 | CCCCCC(=O)COS(=O)(=O)c1ccc(C)cc1 [Compound 18] | 94% | 40% | > 3000 mg/kg | 5.80 | 77% |  |  |  |  | 
7 | CCCCCCC(=O)COS(=O)(=O)c1ccc(C)cc1 [Compound 19] | 78% | 41% | > 3000 mg/kg | 5.47 | 100% |  |  |  |  | 
8 | CCCCCCC(=O)COS(=O)(=O)c1ccccc1C [Compound 31] | 61% | 31% | > 2000 mg/kg | 7.77 | 100% |  |  |  |  | 
9 | CCCCC(CC)C(=O)COS(=O)(=O)c1ccccc1C (centres unmarked) [Compound 32] | 70% | 43% | > 3000 mg/kg | 6.46 | 0.4% |  |  |  |  | 
10 | CCCCCCCC(=O)COS(=O)(=O)c1ccc(OC)cc1 [Compound 37] | 62% | 62% | > 3000 mg/kg | 6.82 | 91% |  |  |  |  | 
11 | CCCCCCCCCC(=O)COS(=O)(=O)c1ccc(OC)cc1 [Compound 38] |  |  | > 4000 mg/kg | 7.00 | 45% |  |  |  | 67% | 
12 | CCCCCCCC(=O)COS(=O)(=O)c1ccc(OCC)cc1 [Compound 47] |  | 60% | > 4000 mg/kg | 6.23 | 67% |  |  |  | 82% | 
13 | CCCCC(CC)C(=O)COS(=O)(=O)c1ccc(OCC)cc1 (centres unmarked) [Compound 50] | 80% | 94% | > 4500 mg/kg | 4.68 | 31% |  |  |  |  | 
14 | CCCCCCCC(=O)COS(=O)(=O)c1ccc(OCCCC)cc1 [Compound 56] |  |  | > 3000 mg/kg | 6.00 | 50% |  |  |  | 64% | 42%
15 | CCCCCCCCCCCC(=O)COS(=O)(=O)c1ccc(O)cc1 [Compound 62] |  |  | > 3000 mg/kg | 7.54 | 93% |  |  |  | 72% | 
16 | CCCC(=O)COS(=O)(=O)c1c(C)cc(C)cc1C [Compound 73, 2-oxopentyl-2,4,6-trimethylbenzenesulfonate] | 92% | 90% |  | 6.00 | 13% |  |  | > 3000 mg/kg |  | 
17 | CCCCCCCCC(=O)COS(=O)(=O)c1c(C)cc(C)cc1C [Compound 78] | 56% | 61% | > 4000 mg/kg | 9.20 | 72% |  |  |  |  | 

Row | Structure (SMILES) | inhibition in vivo at 100 mg/kg (triglycerides; [1]) | inhibition in vivo at 100 mg/kg (cholesterol; [2]) | LD50 (Acute toxicity; po) | pIC50 (esterase) | inhibition at 100 µM (chymotripsin) | inhibition in vivo at 100 mg/kg (triglycerides; Rattus norvegicus, po, 2 h) | inhibition in vivo at 100 mg/kg (cholesterol; Rattus norvegicus, po, 8 h) | LD50 (Acute toxicity; [3]) | inhibition in vivo at 200 mg/kg (triglycerides; [4]) | Anti-lipemic effect, CS (percent cholesterol inhibition), asterisked (cholesterol; [5])
18 | CCCCCCCCCCC(=O)COS(=O)(=O)c1c(C)cc(C)cc1C [Compound 80] |  |  | > 4000 mg/kg | 10.49 | 55% |  |  |  | 63% | 
19 | C=CCCC(=O)COS(=O)(=O)c1c(C)cc(C)cc1C [Compound 86] | 79% | 66% | > 3000 mg/kg | 6.92 | 14% |  |  |  |  | 
20 | CCCCCC(=O)COS(=O)(=O)c1c(C)c(C)cc(C)c1C [Compound 90] |  |  | > 3000 mg/kg | 8.59 | 13% |  |  |  | 59% | 
21 | CCCCC(=O)COS(=O)(=O)c1c(C)cc(C)c(C)c1C [Compound 96] | 68% | 71% | > 3000 mg/kg | 9.80 | 12% |  |  |  |  | 
22 | CCCCCCCCC(=O)COS(=O)(=O)c1c(C)cc(C)c(C)c1C [Compound 98] |  |  | > 4000 mg/kg | 10.57 | 26% |  |  |  | 70% | 71%
23 | C=CCCCCCCCCC(=O)COS(=O)(=O)c1c(C)cc(C)c(C)c1C [Compound 101] |  |  | > 4000 mg/kg | 7.52 | 23% |  |  |  | 54% | 
24 | CCCC(=O)COS(=O)(=O)c1cc(C)ccc1C [Compound 111] | 73% | 51% | > 2000 mg/kg | 6.55 | 4% |  |  |  |  | 
25 | CCCC(=O)COS(=O)(=O)c1cc(C)c(C)cc1C [Compound 116] | 90% | 82% | > 2000 mg/kg | 5.89 | 0% |  |  |  |  | 
26 | CCCCC(CCCC)C(=O)COS(=O)(=O)c1ccc(C)cc1 [Compound 129] | 66% | 45% | > 3000 mg/kg | 5.15 | 30% |  |  |  |  | 
27 | CCCCCC(C)C(=O)COS(=O)(=O)c1ccc(C)cc1 (centres unmarked) [Compound 130] | 72% | 51% | > 3000 mg/kg | 5.40 | 52% |  |  |  |  | 
28 | CCCC(CC)C(=O)COS(=O)(=O)c1ccc(OCC)cc1 (centres unmarked) [Compound 134] | 82% | 65% | > 4500 mg/kg | 3.25 | 2% |  |  |  |  | 
29 | CCCC(CCC)C(=O)COS(=O)(=O)c1ccc(OCC)cc1 [Compound 135] | 91% | 92% | > 4500 mg/kg | 4.25 | 10% |  |  |  |  | 
30 | CCOc1ccc(S(=O)(=O)OCC(=O)CC(CC)CC)cc1 [Compound 137] | 81% | 72% | > 4000 mg/kg | 5.00 | 14% |  |  |  |  | 
31 | CCOc1ccc(S(=O)(=O)OCC(=O)CCC(C)C)cc1 [Compound 138] | 95% | 90% | > 2000 mg/kg | 5.38 | 67% |  |  |  |  | 
32 | CCOc1ccc(S(=O)(=O)OCC(=O)CCC(C)CC)cc1 (centres unmarked) [Compound 143] |  |  | > 4000 mg/kg | 5.70 | 79% |  |  |  | 62% | 
33 | CCOc1ccc(S(=O)(=O)OCC(=O)CCCC(C)C)cc1 [Compound 145] | 61% | 62% | > 3000 mg/kg | 5.48 | 87% |  |  |  |  | 
34 | Cc1cc(C)c(S(=O)(=O)OCC(=O)CC(C)C)c(C)c1 [Compound 149] | 81% | 67% | > 3000 mg/kg | 6.00 | 7% |  |  |  |  | 
